Data published in patent publication US7354920B2, “Aryl and heteroaryl morpholine derivatives” (Eli Lilly and Company, priority 2002, dated 2008).
Structures can show the parent of a compound that is named as a salt. Where two headings read alike, the source gives them in different places.

Molecular target: T1, human norepinephrine transporter (Homo sapiens, UniProt P23975)
T1 construct: isolate and amplify each of the three full-length cDNAs from an appropriate cDNA library; expressed in transfected cells; host or cells: HEK293 cells, stably transfected (pcDNA3.1-type vector); membranes used
Assay: Scintillation proximity assay, [3H]-nisoxetine binding at the norepinephrine transporter

T1 sequence (P23975 whole entry): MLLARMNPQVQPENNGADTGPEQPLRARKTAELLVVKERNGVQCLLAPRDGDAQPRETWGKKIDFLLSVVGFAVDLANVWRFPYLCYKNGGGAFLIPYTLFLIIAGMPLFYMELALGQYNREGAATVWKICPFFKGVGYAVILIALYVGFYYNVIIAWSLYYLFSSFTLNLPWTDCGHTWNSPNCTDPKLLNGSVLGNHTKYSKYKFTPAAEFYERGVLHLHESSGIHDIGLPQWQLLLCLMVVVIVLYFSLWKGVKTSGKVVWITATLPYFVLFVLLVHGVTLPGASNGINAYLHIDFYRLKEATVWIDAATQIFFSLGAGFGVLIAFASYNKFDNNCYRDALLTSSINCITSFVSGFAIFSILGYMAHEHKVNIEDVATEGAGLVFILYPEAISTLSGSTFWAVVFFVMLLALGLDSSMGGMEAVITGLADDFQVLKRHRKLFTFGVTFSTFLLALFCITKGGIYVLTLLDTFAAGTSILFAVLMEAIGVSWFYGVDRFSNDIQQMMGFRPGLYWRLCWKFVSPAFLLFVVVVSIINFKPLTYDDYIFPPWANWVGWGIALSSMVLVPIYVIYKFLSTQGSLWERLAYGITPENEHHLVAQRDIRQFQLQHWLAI

Ki [nM] | Ki (scintillation proximity assay, 3H-nisoxetine, HEK-293 membranes, read-out: NET Ki) [nM] | Structure (SMILES)
3.6 | – | COc1ccc(F)cc1CC(O)(c1ccccc1)[C@H]1CNCCO1 (stereo in doubt) [Example 8, (S,R) 2-(5-Fluoro-2-methoxy-phenyl)-1-morpholin-2-yl-1-phenyl-ethanol hydrochloride]
– | 12.4 | OC(Cc1ccccc1OC(F)(F)F)(c1ccccc1)[C@H]1CNCCO1 (stereo in doubt) [Example 5, (S,R) 1-Morpholin-2-yl-1-phenyl-2-(2-trifluoromethoxy-phenyl)-ethanol hydrochloride]
